Data reported in ChEMBL document CHEMBL3621069 (Bioorg Med Chem Lett, 2015).
In brackets after ≈: the same amount, converted by molar mass.

Legend:
[1] = biological target: T1, Tyrosine-protein kinase SYK (Homo sapiens, UniProt P43405); test: Inhibition of purified full-length human SYK pre-incubated for 30 mins at room temperature before Ulight-TK peptide substrate addition and measured 1 hr after substrate addition by cell free kinase assay
[2] = Apparent permeability in human Caco2 cells; format: ADME, cell-based; settings: Caco-2
[3] = Kinetic solubility of the compound; format: physicochemical; settings: read-out: Kinetic_solubility
Cytochrome P450 3A4 = Cytochrome P450 3A4 (Homo sapiens, UniProt P08684); test: Inhibition of CYP3A4 (unknown origin); format: ADME
Cytochrome P450 3A4, sequence (P08684 whole entry): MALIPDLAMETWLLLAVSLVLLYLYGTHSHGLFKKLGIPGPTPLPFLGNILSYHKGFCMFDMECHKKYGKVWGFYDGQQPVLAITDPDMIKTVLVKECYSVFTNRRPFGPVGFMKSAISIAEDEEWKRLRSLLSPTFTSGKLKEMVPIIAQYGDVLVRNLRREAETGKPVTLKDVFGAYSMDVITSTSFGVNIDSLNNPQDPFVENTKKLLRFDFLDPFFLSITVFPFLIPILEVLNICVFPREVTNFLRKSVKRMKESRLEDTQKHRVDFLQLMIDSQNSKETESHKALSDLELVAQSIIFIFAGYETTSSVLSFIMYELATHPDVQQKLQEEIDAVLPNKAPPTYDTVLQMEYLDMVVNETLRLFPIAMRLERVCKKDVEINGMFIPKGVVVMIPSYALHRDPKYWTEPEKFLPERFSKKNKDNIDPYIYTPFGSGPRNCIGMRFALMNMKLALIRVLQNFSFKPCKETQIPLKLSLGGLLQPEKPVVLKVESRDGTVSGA

Rattus norvegicus = test: Volume of distribution at steady state in Sprague-Dawley rat at 10 mg/kg, po; format: ADME, organism-based; settings: in vivo
[4] = Terminal half life in Sprague-Dawley rat at 10 mg/kg, po; format: ADME, organism-based; settings: in vivo, read-out: beta t1/2 (converted)
[5] = AUClast in Sprague-Dawley rat at 10 mg/kg; format: ADME, organism-based; parameters: dose 10 mg/kg, time 0 - last; settings: in vivo
[6] = biological target: T1, Tyrosine-protein kinase SYK; test: Inhibition of SYK-mediated TNFalpha production in human IgG-stimulated human THP1 cells incubated for 18 hrs by ELISA method; format: cell-based, THP-1
[7] = biological target: T2, Tyrosine-protein kinase JAK3 (Homo sapiens, UniProt P52333); test: Inhibition of JAK3 (unknown origin) pre-incubated for 30 mins at room temperature before substrate addition and measured 1 hr after substrate addition by cell free kinase assay
T2 sequence (P52333 whole entry): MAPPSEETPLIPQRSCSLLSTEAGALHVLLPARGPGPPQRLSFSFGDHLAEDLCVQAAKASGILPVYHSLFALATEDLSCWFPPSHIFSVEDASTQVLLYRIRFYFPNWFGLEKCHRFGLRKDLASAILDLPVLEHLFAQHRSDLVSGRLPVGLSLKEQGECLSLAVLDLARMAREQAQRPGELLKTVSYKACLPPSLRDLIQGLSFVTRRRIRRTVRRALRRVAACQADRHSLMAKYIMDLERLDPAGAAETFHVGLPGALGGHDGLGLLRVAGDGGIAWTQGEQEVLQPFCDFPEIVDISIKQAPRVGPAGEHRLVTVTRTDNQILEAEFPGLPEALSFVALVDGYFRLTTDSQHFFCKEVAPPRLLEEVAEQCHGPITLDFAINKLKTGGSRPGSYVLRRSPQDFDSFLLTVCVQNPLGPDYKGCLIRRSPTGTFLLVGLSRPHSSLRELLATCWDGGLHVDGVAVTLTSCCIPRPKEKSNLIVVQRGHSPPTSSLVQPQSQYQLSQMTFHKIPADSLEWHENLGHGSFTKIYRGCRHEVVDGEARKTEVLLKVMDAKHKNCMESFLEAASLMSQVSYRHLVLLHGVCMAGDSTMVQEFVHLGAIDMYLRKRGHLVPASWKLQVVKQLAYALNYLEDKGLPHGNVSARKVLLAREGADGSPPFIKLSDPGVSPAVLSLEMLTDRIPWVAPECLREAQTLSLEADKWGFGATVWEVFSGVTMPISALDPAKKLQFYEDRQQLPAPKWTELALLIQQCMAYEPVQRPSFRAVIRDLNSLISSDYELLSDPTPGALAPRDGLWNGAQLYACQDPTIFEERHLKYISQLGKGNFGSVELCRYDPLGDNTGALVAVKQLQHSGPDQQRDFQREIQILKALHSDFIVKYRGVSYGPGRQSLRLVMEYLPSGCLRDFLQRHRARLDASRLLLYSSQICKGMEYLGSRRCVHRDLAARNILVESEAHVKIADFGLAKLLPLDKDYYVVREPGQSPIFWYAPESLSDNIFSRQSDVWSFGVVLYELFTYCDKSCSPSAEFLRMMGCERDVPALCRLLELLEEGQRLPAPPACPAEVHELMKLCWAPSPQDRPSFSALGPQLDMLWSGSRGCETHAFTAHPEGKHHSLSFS

[8] = Oral bioavailability in Sprague-Dawley rat at 10 mg/kg; format: ADME, organism-based; settings: in vivo
[9] = Clearance in Sprague-Dawley rat at 10 mg/kg, po; format: ADME, organism-based; settings: in vivo
[10] = biological target: T3, Tyrosine-protein kinase ZAP-70 (Homo sapiens, UniProt P43403); test: Inhibition of purified full-length human ZAP70 pre-incubated for 30 mins at room temperature before UlighTM-PolyGT peptide substrate addition and measured 1 hr after substrate addition by cell free kinase assay
T3 sequence (P43403 whole entry): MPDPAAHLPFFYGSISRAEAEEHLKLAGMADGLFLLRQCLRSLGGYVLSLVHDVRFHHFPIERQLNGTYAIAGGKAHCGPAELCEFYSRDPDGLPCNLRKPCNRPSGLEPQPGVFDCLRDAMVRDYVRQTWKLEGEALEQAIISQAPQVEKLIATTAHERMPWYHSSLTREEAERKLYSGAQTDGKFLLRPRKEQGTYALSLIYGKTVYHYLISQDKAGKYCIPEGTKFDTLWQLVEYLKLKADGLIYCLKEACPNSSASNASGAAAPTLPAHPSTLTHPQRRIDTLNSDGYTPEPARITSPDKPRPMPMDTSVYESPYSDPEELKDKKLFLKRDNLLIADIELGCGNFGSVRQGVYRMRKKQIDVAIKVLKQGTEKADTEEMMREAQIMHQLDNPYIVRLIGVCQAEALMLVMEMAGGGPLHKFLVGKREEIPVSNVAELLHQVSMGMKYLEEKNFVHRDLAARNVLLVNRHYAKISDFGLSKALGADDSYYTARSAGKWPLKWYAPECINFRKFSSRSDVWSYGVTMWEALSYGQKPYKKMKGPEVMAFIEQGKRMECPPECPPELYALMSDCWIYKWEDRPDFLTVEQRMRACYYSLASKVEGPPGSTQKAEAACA

[11] = Inhibition of CYP450 (unknown origin); format: ADME, Homo sapiens
[12] = Apparent permeability from apical to basolateral side in human Caco2 cells; format: ADME, cell-based; settings: Caco-2
[13] = biological target: Proto-oncogene tyrosine-protein kinase receptor Ret (Homo sapiens, UniProt P07949); test: Inhibition of human RET pre-incubated for 30 mins at room temperature before substrate addition and measured 1 hr after substrate addition by cell free kinase assay
Proto-oncogene tyrosine-protein kinase receptor Ret, sequence (P07949 whole entry): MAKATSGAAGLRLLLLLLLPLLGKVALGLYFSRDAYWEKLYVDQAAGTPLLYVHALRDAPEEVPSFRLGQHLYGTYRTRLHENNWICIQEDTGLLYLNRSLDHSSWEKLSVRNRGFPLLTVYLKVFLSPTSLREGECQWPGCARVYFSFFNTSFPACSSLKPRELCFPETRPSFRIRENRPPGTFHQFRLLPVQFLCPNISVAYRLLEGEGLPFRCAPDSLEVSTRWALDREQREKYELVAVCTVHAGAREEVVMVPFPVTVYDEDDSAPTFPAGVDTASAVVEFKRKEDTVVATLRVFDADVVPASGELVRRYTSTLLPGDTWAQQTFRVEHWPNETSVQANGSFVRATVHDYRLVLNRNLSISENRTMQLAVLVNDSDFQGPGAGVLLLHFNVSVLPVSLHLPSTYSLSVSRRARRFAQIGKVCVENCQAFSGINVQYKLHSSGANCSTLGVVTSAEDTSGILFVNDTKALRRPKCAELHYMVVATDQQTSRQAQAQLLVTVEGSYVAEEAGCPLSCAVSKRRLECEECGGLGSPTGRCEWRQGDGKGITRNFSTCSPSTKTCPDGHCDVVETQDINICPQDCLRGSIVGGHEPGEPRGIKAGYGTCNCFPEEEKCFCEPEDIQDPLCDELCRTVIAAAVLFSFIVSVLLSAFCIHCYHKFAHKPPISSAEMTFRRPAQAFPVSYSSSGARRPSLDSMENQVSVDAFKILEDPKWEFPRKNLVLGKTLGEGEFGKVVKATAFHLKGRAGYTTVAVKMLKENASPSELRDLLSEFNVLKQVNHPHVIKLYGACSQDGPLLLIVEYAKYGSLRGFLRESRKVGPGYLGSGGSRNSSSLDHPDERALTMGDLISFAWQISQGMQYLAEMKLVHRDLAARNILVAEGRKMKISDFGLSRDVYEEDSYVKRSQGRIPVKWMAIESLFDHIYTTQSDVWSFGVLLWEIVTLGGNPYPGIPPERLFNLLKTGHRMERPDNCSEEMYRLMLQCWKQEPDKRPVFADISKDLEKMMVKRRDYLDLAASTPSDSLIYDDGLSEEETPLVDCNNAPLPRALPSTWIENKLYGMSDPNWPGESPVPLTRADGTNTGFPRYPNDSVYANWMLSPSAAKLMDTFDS

[14] = Stability in human liver microsomes; format: ADME; settings: read-out: Stability
Plasma = test: Unbound fraction in human plasma; format: ADME, cell-free
[15] = Apparent permeability from basolateral to apical side in human Caco2 cells; format: ADME, cell-based; settings: Caco-2

Row | Compound | IC50 [1] [nM] | further results
1 | Cc1nn(-c2ccnc(Nc3ccc4c(ccn4C)c3)n2)cc1CN1CC(O)C1 | 36.6 | –
2 | Cc1cc(C)cc(Nc2nccc(-n3cc(CN4CC(O)C4)c(C)n3)n2)c1 | 7.3 | –
3 | Cc1nn(-c2ccnc(Nc3ccc4c(c3)CCN4C)n2)cc1CN1CC(O)C1 | 20.4 | –
4 | Cc1cc(C)cc(Nc2nccc(-n3cc(CN4CC[C@@H](O)C4)c(C4CC4)c3)n2)c1 | 3.7 | –
5 | Cc1cc(C)cc(Nc2nccc(-n3cc(C)c(CN4CC[C@@H](N)C4)c3)n2)c1 | 13.2 | –
6 | Cc1nn(-c2ccnc(Nc3ccc4c(cnn4C4CC4)c3)n2)cc1CN1CC(O)C1 | 8 | –
7 | COc1cc(Nc2nccc(-n3cc(C)c(CN(C)C)c3)n2)cc(OC)c1OC | 71.8 | –
8 | CCn1ccc2cc(Nc3nccc(-n4cc(CN5CC(O)C5)c(C5CC5)n4)n3)ccc21 | 9.2 | –
9 | Cc1nn(-c2nc(Nc3ccc4c(cnn4C)c3)ncc2F)cc1CN1CC(O)C1 | 326 | –
10 | Cc1cc(C)cc(Nc2nccc(-n3cc(C)c(CN4CC[C@H](C(=O)O)C4)c3)n2)c1 | 17.8 | –
11 | Cc1cc(C)cc(Nc2nccc(-n3cc(C)c(CN(C)C)c3)n2)c1 | 6.2 | –
12 | COc1cc(Nc2nccc(-n3cc(C)c(CN4CC[C@@H](O)C4)c3)n2)cc(OC)c1OCC(=O)N1CCCC1 | 101 | –
13 | COc1cc(Nc2nccc(-n3cc(C)c(CN4CC(O)C4)c3)n2)cc(OC)c1OCC(=O)N1CCCC1 | 61.4 | –
14 | Cc1cc(C)cc(Nc2nccc(-n3cc(C)c(CN4CC[C@@H](O)C4)c3)n2)c1 | 2.3 | Papp [2]: 2 ×10⁻⁶ cm/s; Vdss (Rattus norvegicus): 4.3 L/kg; solubility kinetic [3]: 70 µM (≈ 26.4 µg/mL); IC50 (Cytochrome P450 3A4): 5100 nM; half-life [4]: 2.6 h; AUC(0-t) [5]: 6240 ng·h/mL; IC50 [6]: 77 nM; IC50 [7]: 349 nM; bioavailability [8]: 7.6%; CL/F [9]: 43 mL/min/kg
15 | Cc1cc(C)cc(Nc2nccc(-n3cc(CN4CC(O)C4)c(C4CC4)c3)n2)c1 | 1.9 | –
16 | Cc1nn(-c2ccnc(Nc3ccccc3)n2)cc1CN1CC[C@@H](O)C1 | 871 | –
17 | Cc1cc(C)cc(Nc2nccc(-n3cc(CN4CCC(O)CC4)c(C)n3)n2)c1 | 39.1 | –
18 | Cc1cc(C)cc(Nc2nccc(-n3cc(C)c(CN4CCC(F)(F)CC4)c3)n2)c1 | 307 | –
19 | Cc1nn(-c2ccnc(Nc3ccc4c(c3)c(Cl)c(C)n4C)n2)cc1CN1CC[C@@H](O)C1 | – | IC50 [10]: 73400 nM; IC50 [11]: > 10000 nM; Papp A→B [12]: 6.2 ×10⁻⁶ cm/s; IC50 [13]: 9590 nM; IC50 [7]: 478 nM; half-life [14]: > 1 h; Fu (Plasma): < 0.4%; Papp B→A [15]: 7.3 ×10⁻⁶ cm/s
20 | Cc1cc(C)cc(Nc2nccc(-n3cc(CN4CC[C@@H](O)C4)c(C)n3)n2)c1 | 3.5 | –
21 | CCn1ccc2cc(Nc3nccc(-n4cc(CN5CC(O)C5)c(C)n4)n3)ccc21 | 22.8 | –
22 | Cc1nn(-c2nc(Nc3ccc4c(c3)c(C#N)nn4C)ncc2F)cc1CN1CC(O)C1 | 5990 | –

Continued, in another order:

Row | IC50 [1] [nM] | Compound | further results
23 | 144 | Cc1cn(-c2ccnc(Nc3cc(C)c(Oc4ccccc4)c(C)c3)n2)cc1CN1CC(O)C1 | –
24 | 7.3 | Cc1cn(-c2ccnc(Nc3cc(C)c(OCC(=O)N4CCCC4)c(C)c3)n2)cc1CN1CC(O)C1 | –
25 | 17.3 | Cc1cn(-c2ccnc(Nc3cc(C)c(OCCO)c(C)c3)n2)cc1CN1CC[C@@H](O)C1 | Papp [2]: 10.3 ×10⁻⁶ cm/s; solubility kinetic [3]: 120 µM (≈ 52.5 µg/mL); IC50 (Cytochrome P450 3A4): > 10000 nM
26 | 7.9 | Cc1cn(-c2ccnc(Nc3cc(C)c(OS(C)(=O)=O)c(C)c3)n2)cc1CN1CC[C@@H](O)C1 | –
27 | 5.4 | Cc1cc(C)cc(Nc2nccc(-n3cc(C)c(CN4CC(O)C4)c3)n2)c1 | –
28 | 14.4 | Cc1cn(-c2ccnc(Nc3cc(C)c(OCC(=O)N4CCCC4)c(C)c3)n2)cc1CN1CC[C@@H](O)C1 | –
29 | 11.5 | Cc1cn(-c2ccnc(Nc3cc(C)c(OCCN4CCCC4)c(C)c3)n2)cc1CN1CC(O)C1 | –
30 | 5 | Cc1cn(-c2ccnc(Nc3cc(C)c(OCCO)c(C)c3)n2)cc1CN1CC(O)C1 | –
31 | 6.3 | Cc1cn(-c2ccnc(Nc3cc(C)c(OS(C)(=O)=O)c(C)c3)n2)cc1CN1CC(O)C1 | –
32 | 8.9 | Cc1cc(Nc2nccc(-n3cc(CN4CC(O)C4)c(C)n3)n2)cc(C)c1OCCN1CCCC1 | –
33 | 5.7 | COc1c(C)cc(Nc2nccc(-n3cc(C)c(CN4CC(O)C4)c3)n2)cc1C | Vdss (Rattus norvegicus): 5.6 L/kg; half-life [4]: 1.2 h; AUC(0-t) [5]: 550 ng·h/mL; bioavailability [8]: 7.8%; CL/F [9]: 70 mL/min/kg
34 | 38 | COc1cc(Nc2nccc(-n3cc(C)c(CN4CC(O)C4)c3)n2)cc(OC)c1OC | –
35 | 377 | Cc1cn(-c2ccnc(Nc3cc(C)c(Oc4ccccc4)c(C)c3)n2)cc1CN1CC[C@@H](O)C1 | –
